Reference: US9266870B2 (TAISHO PHARMACEUTICAL CO., LTD., priority 2012, dated 2016)
Like-named read-outs stand apart in the source and are kept apart here.

Key:
[1] = target: human orexin-2 receptor (hOX2R) (Homo sapiens (Human), UniProt O43614); assay: Measurement of orexin antagonistic activity (intracellular Ca2+ fluorescence, FDSS), hOX2R; assay type: cell-based
Protocol: (§1) The antagonistic activities of the test compounds on human orexin-1 receptor (hOX1R) and orexin-2 receptor (hOX2R) were measured by modifying from the method described in literature (Toshikatsu Okumura et al., Biochemical and Biophysical Research Communications 280, 976-981, 2001). Chinese hamster ovary (CHO) cells forcibly expressing the hOX1R and hOX2R were seeded into a 96 well Black clear bottom plate (Nunc) at 20,000 cells per well, which were cultured in Ham's F-12 medium containing 0.1 mM MEM non-essential amino acids, 0.5 mg/ml G418, 10% fetal bovine serum (all by Invitrogen) for 16 hours under the conditions of 37° C., 5% CO2. After removing the medium, 100 μL of 0.5 μM Fluo-4AM ester (Dojin) in an assay buffer (25 mM HEPES (Dojin), Hank's balanced salt solution (Invitrogen), 0.1% bovine serum albumin, 2.5 mM probenecid, 200 μg/ml Amaranth (all by Sigma-Aldrich), pH 7.4) was added and the cells were incubated for 60 minutes at 37° C., 5% CO2. After removing the assay buffer containing […] ester, the test compound was dissolved in dimethyl sulfoxide to be 10 mM and diluted with the assay buffer, 150 μL of which was added and incubated for 30 minutes.
(§2) The reaction was measured for the fluorescence intensity of each well every second for 3 minutes using Functional Drug Screening System (FDSS; Hamamatsu Photonics K.K.), and the antagonistic activity was determined using the maximum fluorescence intensity as the indicator of intracellular Ca2+ concentration.

[2] = target: human orexin-1 receptor (hOX1R) (Homo sapiens (Human), UniProt O43613); assay: Measurement of orexin antagonistic activity (intracellular Ca2+ fluorescence, FDSS), hOX1R; assay type: cell-based; settings: ligand peptide (modified human orexin-A) 300 pM, maximum fluorescence intensity
Protocol: as §1, with “Chinese” for “The antagonistic activities of the test compounds on human orexin-1 receptor (hOX1R) and orexin-2 receptor (hOX2R) were measured by modifying from the method described in literature (Toshikatsu Okumura et al., Biochemical and Biophysical Research Communications 280, 976-981, 2001). Chinese”
as §2

[3] = CHO cells forcibly expressing hOX2R, ligand peptide (modified human orexin-A) 3 nM, maximum fluorescence intensity, read-out: IC50 Value OX2
[4] = CHO cells forcibly expressing hOX1R, read-out: IC50 Value OX1

Chain of human orexin-2 receptor (hOX2R) (O43614 whole entry): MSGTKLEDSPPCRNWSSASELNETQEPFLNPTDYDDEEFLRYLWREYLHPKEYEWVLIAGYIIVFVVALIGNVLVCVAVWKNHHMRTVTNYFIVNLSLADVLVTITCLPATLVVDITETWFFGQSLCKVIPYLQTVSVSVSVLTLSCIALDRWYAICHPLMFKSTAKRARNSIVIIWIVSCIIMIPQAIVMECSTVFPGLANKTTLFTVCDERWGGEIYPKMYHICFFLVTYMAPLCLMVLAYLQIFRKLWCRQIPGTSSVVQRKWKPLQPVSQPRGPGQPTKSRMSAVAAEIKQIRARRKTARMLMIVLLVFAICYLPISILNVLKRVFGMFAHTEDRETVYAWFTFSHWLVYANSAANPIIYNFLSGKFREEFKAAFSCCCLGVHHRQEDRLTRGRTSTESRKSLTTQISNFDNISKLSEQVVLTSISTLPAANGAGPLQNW
Chain of human orexin-1 receptor (hOX1R) (O43613 whole entry): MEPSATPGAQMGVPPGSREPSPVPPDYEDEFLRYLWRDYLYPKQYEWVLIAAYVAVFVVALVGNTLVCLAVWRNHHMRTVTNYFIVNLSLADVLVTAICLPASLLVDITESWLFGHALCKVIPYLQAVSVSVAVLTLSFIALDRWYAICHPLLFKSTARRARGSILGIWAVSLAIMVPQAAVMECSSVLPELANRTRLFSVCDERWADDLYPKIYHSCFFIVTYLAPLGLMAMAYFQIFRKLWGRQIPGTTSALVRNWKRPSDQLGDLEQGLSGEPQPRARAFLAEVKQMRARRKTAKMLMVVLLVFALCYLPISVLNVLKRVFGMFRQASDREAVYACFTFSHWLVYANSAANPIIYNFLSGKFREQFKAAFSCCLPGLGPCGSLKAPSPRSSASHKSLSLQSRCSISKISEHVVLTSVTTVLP

Structure (SMILES)	IC50 [1, 3]	IC50 [2, 4]	IC50 [1]	IC50 ([2]; IC50 Value OX1, CHO cells forcibly expressing hOX1R)
O=C(c1cc(F)ccc1-c1ncccn1)N1CCOC1Cn1ccc(-c2ccc(F)cc2)n1 (racemic) [Example 21]	234 nM	30.2 nM		
Cc1ccc(-c2ncccn2)c(C(=O)N2CCCOC2Cc2noc(-c3ccc(F)cn3)n2)c1 (racemic) [Example 33, (±)-(2-[[5-(5-fluoropyridin-2-yl)-1,2,4-oxadiazol-3-yl]methyl]-1,3-oxazinan-3-yl) [5-methyl-2-(pyrimidin-2-yl)phenyl]methanone]	4540 nM	3590 nM		
Cc1ccc(-c2ncccn2)c(C(=O)N2CCCOC2Cc2cnn(-c3ccc(F)cn3)c2)c1 (racemic) [Example 42, (±)-[2-[[1-(5-fluoropyridin-2-yl)-1H-pyrazol-4-yl]methyl]-1,3-oxazinan-3-yl] [5-methyl-2-(pyrimidin-2-yl)phenyl]methanone]	20.4 nM	17.2 nM		
Cc1ccc(-n2nccn2)c(C(=O)N2CCOC2Cn2cc(-c3ccc(F)cn3)cn2)c1 (single isomer, unassigned; (-)) [Example 2, (−)-(2-[[4-(5-fluoropyridin-2-yl)-1H-pyrazol-1-yl]-methyl]-1,3-oxazolidin-3-yl)[5-methyl-2-(2H-1,2,3-triazol-2-yl)phenyl] methanone]	18.6 nM	14.3 nM		
Cc1ccc(-n2nccn2)c(C(=O)N2CCCOC2Cn2ccc(-c3ccc(F)cn3)n2)c1 (single isomer, unassigned; (-)) [Example 3, (−)-(2-[[3-(5-fluoropyridin-2-yl)-1H-pyrazol-1-yl]-methyl]-1,3-oxazinan-3-yl)[5-methyl-2-(2H-1,2,3-triazol-2-yl)phenyl] methanone]			1.2 nM	0.7 nM

More lines, main results first:

IC50 [1, 3]	IC50 [2, 4]	Structure (SMILES)	IC50 [1]	IC50 ([2]; IC50 Value OX1, CHO cells forcibly expressing hOX1R)
101 nM	12.3 nM	Cc1ccc(-c2ncccn2)c(C(=O)N2CCOC2Cn2ccc(-c3ccc(F)cc3)n2)c1 (racemic) [Example 20, (±)-(2-[[3-(4-fluorophenyl)-1H-pyrazol-1-yl]methyl]-1,3-oxazolidin-3-yl)[5-methyl-2-(pyrimidin-2-yl)phenyl]methanone]		
112 nM	96.3 nM	Cc1ccc(-n2nccn2)c(C(=O)N2CCOC2Cn2cc(-c3ccc(F)cc3)cn2)n1 (racemic) [Example 23, (±)-(2-[[4-(4-fluorophenyl)-1H-pyrazol-1-yl]methyl]-1,3-oxazolidin-3-yl)[6-methyl-3-(2H-1,2,3-triazol-2-yl)pyridin-2-yl]methanone]		
59.1 nM	21.7 nM	Cc1ccc(-n2nccn2)c(C(=O)N2CCOC2Cn2ccc(-c3ccc(F)cc3)n2)n1 (single isomer, unassigned; (-)) [Example 26, (−)-(2-[[3-(4-fluorophenyl)-1H-pyrazol-1-yl]methyl]-1,3-oxazolidin-3-yl) [6-methyl-3-(2H-1,2,3-triazol-2-yl)pyridin-2-yl] methanone]		
3 nM	0.9 nM	Cc1ccc(-n2nccn2)c(C(=O)N2CCCOC2Cn2ccc(-c3ccc(F)cc3)n2)n1 (single isomer, unassigned; (-)) [Example 27, (−)-(2-[[3-(4-fluorophenyl)-1H-pyrazol-1-yl]methyl]-1,3-oxazinan-3-yl)[6-methyl-3-(2H-1,2,3-triazol-2-yl)pyridin-2-yl]methanone]		
4 nM	2.4 nM	Cc1ccc(-c2ncccn2)c(C(=O)N2CCCOC2Cn2ccc(-c3ccc(F)cc3)n2)n1 (single isomer, unassigned; (-)) [Example 28, (−)-(2-[[3-(4-fluorophenyl)-1H-pyrazol-1-yl]methyl]-1,3-oxazinan-3-yl)[6-methyl-3-(pyrimidin-2-yl)pyridin-2-yl] methanone]		
1.2 nM	3.2 nM	O=C(c1cc(F)ccc1-n1nccn1)N1CCCOC1Cn1ccc(-c2ccc(F)cn2)n1 (single isomer, unassigned; (-)) [Example 29, (−)-(2-[[3-(5-fluoropyridin-2-yl)-1H-pyrazol-1-yl]methyl]-1,3-oxazinan-3-yl)[5-fluoro-2-(2H-1,2,3-triazol-2-yl)phenyl]methanone]		
